Measured values published in patent US10703698B2, “Compounds which activate estrogen receptors and compositions and methods of using the same” (The Board of Trustees of the University of Illinois, priority 2016, dated 2020).
“Also recorded” adds a separate entry of the source.

Experiments:
Format in all cases: cell-based, human
MCF-7 cells [1] = assay: RNA-Seq of MCF-7 cells treated with OA with and without PaPE-1
Method: FIG. 38. Identification of genes induced by OA and PaPE-1's effect on the gene regulation. (A) RNA-Seq analysis of gene expression changes induced by OA and OA+PaPE1. Heat map of the genes with significant changed expression. MCF-7 cells were treated with Veh or 100 nM OA with and without 1 μM PaPE-1 for 24 h. RNA was isolated and RNA-Seq was performed using 2 samples from each treatment group. Differentially regulated genes were determined with p<0.05 and expression fold change >2. (B) Clusters from A. regulated by OA and reversed by PaPE-1. The average gene expression level of the cluster1 (C1) and 2 (C2) identified as PaPE-1 regulated high-fat genes. In C1, there are 425 genes whose expression were found stimulated in OA but not in the OA+PaPE-1 treatment. In C2, there are 646 genes whose expression were found suppressed in the OA but restored by OA+PaPE-1 treatment. (C) Venn diagram analysis. […] (D) Examples of OA-regulated genes. Some of the top functions of the involved genes are presented.

MCF-7 cells [2] = assay: Seahorse cell metabolic phenotype assays in MCF-7 cells; settings: 24 hours; listed as PaPE-1
mTOR and MAPK signaling = assay: Western blot of signaling pathway activation in MCF-7 cells
Text: Western blot analysis used specific antibodies for ERα (HC-20, Santa Cruz); ERK2 (D-2, Santa Cruz); and pS^6, pS6K, pmTOR, pRAPTOR, pRICTOR, pMAPK (Cell Signaling). Coimmunoprecipitation assays used antibodies for SRC3 (Santa Cruz, C-20) and ERα (Santa Cruz, F10).

Cc1cc(-c2ccc3c(c2)CCC3O)cc(C)c1O (racemic) [Compound 2, 5-(4-hydroxy-3,5-dimethylphenyl)-2,3-dihydro-1H-inden-1-ol]
cluster C1: genes stimulated in OA but not in OA+PaPE-1 (MCF-7 cells [1]): 425 genes | cluster C2: genes suppressed in OA but restored by OA+PaPE-1 (MCF-7 cells [1]): 646 genes | OA-downregulated genes whose expression was restored by PaPE-1 (MCF-7 cells [1]; 1 μM PaPE-1): about 60% | OA-upregulated genes whose activation was blocked by PaPE-1 (MCF-7 cells [1]; 1 μM PaPE-1): 80% | OA-induced glycolytic and aerobic respiration with PaPE-1 (MCF-7 cells [2]): reversed by PaPE-1 treatment; also recorded: normalized by adding PaPE-1 | Serl 18 phosphorylation of ERα (mTOR and MAPK signaling): did not induce any detectable | activation of mTOR, MAPK (and AKT) signaling (mTOR and MAPK signaling; listed as PaPE-1): very efficient in activating mTOR and MAPK signaling; also recorded: selectively activated mTOR and MAPK signaling
